These results are taken from US10077272B2, “Heteroaromatic compounds and their use as dopamine D1 ligands” (PFIZER INC., priority 2014, dated 2018).

Where a name gives a salt, the structure may show the parent alone.

Sequence of Human D1 Receptor (P21728 whole entry): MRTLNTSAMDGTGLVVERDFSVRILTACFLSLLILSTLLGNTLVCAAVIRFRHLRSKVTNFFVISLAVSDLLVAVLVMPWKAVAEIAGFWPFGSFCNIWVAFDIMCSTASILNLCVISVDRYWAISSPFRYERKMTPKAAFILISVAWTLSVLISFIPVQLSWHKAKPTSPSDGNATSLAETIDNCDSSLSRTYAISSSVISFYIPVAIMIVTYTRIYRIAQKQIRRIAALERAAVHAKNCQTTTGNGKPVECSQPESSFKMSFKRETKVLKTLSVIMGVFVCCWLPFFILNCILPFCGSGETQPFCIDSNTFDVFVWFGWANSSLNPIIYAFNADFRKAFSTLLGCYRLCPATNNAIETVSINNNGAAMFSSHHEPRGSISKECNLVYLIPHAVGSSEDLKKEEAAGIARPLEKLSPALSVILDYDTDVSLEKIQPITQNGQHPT

The assay addresses Human D1 Receptor (Homo sapiens (Human), UniProt P21728). Put plainly: Human D1 Receptor Binding Assay ([3H]-SCH23390 competition). As to conditions: competition with 0.5 nM [3H]-SCH23390, over-expressing LTK human cell lines, 30 min at 37° C.; values marked ^a are from a single determination; read-out: Human D1 Receptor Binding, Ki (nM); Geometric mean of 2-4 determinations (unless otherwise indicated). On the procedure: D1 binding assays were performed using over-expressing LTK human cell lines. […] These ligand and tissue concentrations were used in time course studies to determine linearity and equilibrium conditions for binding. […] The pellet was resuspended in assay buffer [50 mM Tris (pH 7.4@ RT) containing 4 mM MgSO4 and 0.5 mM EDTA]. […] Non-specific binding was determined by radioligand binding in the presence of a saturating concentration of (+)-Butaclamol (10 μM), a D1 antagonist. After a 30 minute incubation period at 37° C., assay samples were rapidly filtered through Unifilter-96 GF/B PEI-coated filter plates and rinsed with 50 mM Tris buffer (pH 7.4 at 4° C.). […] Ki values were calculated according to the Cheng-Prusoff equation: […]
In the case of `Cc1n[nH]c(=O)c(C)c1-c1ccc(Oc2ncnc3occc23)cc1` [Example 13, 5-[4-(furo[2,3-d]pyrimidin-4-yloxy)phenyl]-4,6-dimethylpyridazin-3(2H)-one], the Ki – broadly, the dissociation constant of the complex between target and ligand, obtained from inhibition or displacement – came to 70.3 nM.

`Cc1cc(Oc2ncnc3occc23)ccc1-c1c(C)ncc(=O)n1C` (single isomer, unassigned) [Example 4, (−)-6-[4-(furo[2,3-d]pyrimidin-4-yloxy)-2-methylphenyl]-1,5-dimethylpyrazin-2(1H)-one]: the inhibitory constant (Ki) was 127 nM.

As for `CCc1c(-c2ccc(Oc3ncnc4occc34)cc2)n(C2CC2)c(=O)[nH]c1=O` [Example 22, 1-cyclopropyl-5-ethyl-6-[4-(furo[2,3-d]pyrimidin-4-yloxy)phenyl]pyrimidine-2,4(1H,3H)-dione], the Ki was 142 nM.

Regarding `Cc1cc(Oc2ncnc3occc23)ccc1-c1c(C)n[nH]c(=O)c1C` [Example 6, 5-[4-(furo[2,3-d]pyrimidin-4-yloxy)-2-methylphenyl]-4,6-dimethylpyridazin-3(2H)-one], the Ki is 44.7 nM.

As to `CCc1c(-c2ccc(Oc3ncnc4occc34)cc2)n(CC)c(=O)[nH]c1=O` [Example 23, 1,5-diethyl-6-[4-(furo[2,3-d]pyrimidin-4-yloxy)phenyl]pyrimidine-2,4(1H,3H)-dione], the Ki was determined as 309 nM.

As for `COCCn1c(-c2ccc(Oc3ncnc4occc34)cc2)c(C)c(=O)[nH]c1=O` [Example 19, 6-[4-(furo[2,3-d]pyrimidin-4-yloxy)phenyl]-1-(2-methoxyethyl)-5-methylpyrimidine-2,4(1H,3H)-dione], the Ki was determined as 900 nM.

On to `Cc1cc(Oc2ncnc3occc23)ccc1-c1c(C)ncc(=O)n1C` (single isomer, unassigned) [Example 5, (+)-6-[4-(furo[2,3-d]pyrimidin-4-yloxy)-2-methylphenyl]-1,5-dimethylpyrazin-2(1H)-one], for which the Ki amounted to 400 nM.

Regarding `Cc1cc(Oc2ncnc3occc23)ccc1-c1cn[nH]c(=O)c1C` [Example 14, 5-[4-(furo[2,3-d]pyrimidin-4-yloxy)-2-methylphenyl]-4-methylpyridazin-3(2H)-one], the Ki amounted to 372 nM.

In the case of `Cc1c(-c2ccc(Oc3nccc4onc(C)c34)cc2)n(C)c(=O)[nH]c1=O` [Example 15, 1,5-dimethyl-6-{4-[(3-methyl[1,2]oxazolo[4,5-c]pyridin-4-yl)oxy]phenyl}pyrimidine-2,4(1H,3H)-dione], the Ki is 280 nM.

On to `CCc1c(-c2ccc(Oc3ncnc4occc34)cc2)n(C)c(=O)[nH]c1=O` [Example 18, 5-ethyl-6-[4-(furo[2,3-d]pyrimidin-4-yloxy)phenyl]-1-methylpyrimidine-2,4(1H,3H)-dione], for which the Ki is 274 nM.

For `Cc1cc(Oc2ncnc3occc23)ccc1-c1c(C)n[nH]c(=O)c1C` (single isomer, unassigned) [Example 8, (−)-5-[4-(furo[2,3-d]pyrimidin-4-yloxy)-2-methylphenyl]-4,6-dimethylpyridazin-3(2H)-one], the Ki was 40.2 nM.

As to `Cc1cc(Oc2nccc3onc(C)c23)ccc1-c1c(C)ncc(=O)n1C` [Example 17, 1,5-dimethyl-6-{2-methyl-4-[(3-methyl[1,2]oxazolo[4,5-c]pyridin-4-yl)oxy]phenyl}pyrazin-2(1H)-one, trifluoroacetic acid salt], the inhibitory constant (Ki) was found to be 1730 nM.

`Cc1c(-c2ccc(Oc3ncnc4occc34)cc2)n(C)c(=O)[nH]c1=O` [Example 9, 6-[4-(furo[2,3-d]pyrimidin-4-yloxy)phenyl]-1,5-dimethylpyrimidine-2,4(1H,3H)-dione]: the Ki was 142 nM.

`Cc1cc(Oc2ncnc3occc23)ccc1-c1c(C)ncc(=O)n1C` [Example 3, 6-[4-(furo[2,3-d]pyrimidin-4-yloxy)-2-methylphenyl]-1,5-dimethylpyrazin-2(1H)-one]: the Ki is 196 nM.

`Cc1cc(Oc2nccc3onc(C)c23)ccc1-c1c(C)n[nH]c(=O)c1C` [Example 16, 4,6-dimethyl-5-{2-methyl-4-[(3-methyl[1,2]oxazolo[4,5-c]pyridin-4-yl)oxy]phenyl}pyridazin-3(2H)-one, trifluoroacetic acid salt]: the Ki is 326 nM.

As for `Cc1c(-c2ccc(Oc3ncnc4occc34)cc2)n(C2CC2)c(=O)[nH]c1=O` [Example 21, 1-cyclopropyl-6-[4-(furo[2,3-d]pyrimidin-4-yloxy)phenyl]-5-methylpyrimidine-2,4(1H,3H)-dione], the Ki came out at 122 nM.

For `CCn1c(-c2ccc(Oc3ncnc4occc34)cc2)c(C)c(=O)[nH]c1=O` [Example 20, 1-ethyl-6-[4-(furo[2,3-d]pyrimidin-4-yloxy)phenyl]-5-methylpyrimidine-2,4(1H,3H)-dione], the Ki stood at 179 nM.

`Cc1cc(Oc2ncnc3occc23)ccc1-c1c(C)n[nH]c(=O)c1C` (single isomer, unassigned) [Example 7, (+)-5-[4-(furo[2,3-d]pyrimidin-4-yloxy)-2-methylphenyl]-4,6-dimethylpyridazin-3(2H)-one]: the Ki was determined as 30.7 nM.

In the case of `Cc1cc(Oc2nccc3[nH]cnc23)ccc1-c1c(C)ncnc1C#N` [Example 12, 5-[4-(1H-imidazo[4,5-c]pyridin-4-yloxy)-2-methylphenyl]-6-methylpyrimidine-4-carbonitrile], the Ki came to 367 nM.
